# PubChem BioAssay AID463174 (Southern Research Specialized Biocontainment Screening …, 2010)
# Activity calls are given as the source filed them. How the calls were made is not given here.
# Experiments:
# [1] = late-stage follow-up, counter-screen for PhoP regulon inhibitor project, purified and synthesized compounds, set 5 (AID 463174); details: S. Typhi promoter-GFP counter-screen, fluorescence, 4 h; at 150 µM (top of the series)
# [2] = test system: S. Typhi promoter-GFP counter-screen, fluorescence, 4 h; assay: as above
SMILES,inhibition [1],IC50 [2] [µM]
Cc1ccc(C2Sc3ccccc3N=C3c4ccccc4CC32)cc1 (stereo unspecified),-45.3% (inactive),
O=C1C2=C(Nc3ccccc3SC2c2cccc(Br)c2)c2ccccc21 (stereo unspecified),-12.6% (inactive),
COc1cccc(NC(=O)N2CCCN(Cc3ccccc3F)C2)c1,-3.56% (inactive),
Clc1ccc(C2Sc3ccccc3N=C3c4ccccc4CC32)cc1 (stereo unspecified),-48.2% (inactive),
O=C1C2=C(Nc3ccccc3SC2c2ccc(Cl)cc2)c2ccccc21 (stereo unspecified),,89.6
O=C1C2=C(Nc3ccccc3SC2c2cccnc2)c2ccccc21 (stereo unspecified),-32.9% (inactive),
